Measurements from patent US20050014706A1, “Method of treating tuberculosis” (priority 2003, published 2005).
Converted amounts (≈) assume the structure as drawn. Read-outs that look alike come from different tables or passages of the source.

Test system: M. tuberculosis H37Rv
Experiment: MIC vs. M. tuberculosis H37Rv, microplate Alamar Blue assay (MABA)
Format: cell-based
[1] = Table 3, parallel-synthesis carbazate library products
[2] = Table 2a, 11,12-diols, read-out: Anti-TB Activity MIC
[3] = Table 1a, 11,12-carbamate derivatives, read-out: Anti-TB Activity MIC

| SMILES | MIC [1] | also measured |
| --- | --- | --- |
| CC[C@H]1OC(=O)[C@H](C)[C@@H](O[C@H]2CC(C)(OC)[C@@H](O)[C@H](C)O2)[C@H](C)[C@@H](O[C@@H]2O[C@H](C)C[C@H](N(C)C)[C@H]2O)[C@](C)(OC)C[C@@H](C)C(=O)[C@H](C)[C@H]2N(NCc3cccn3-c3ccc(C(F)(F)F)cc3)C(=O)O[C@]12C (some centres unmarked) [F1′] | 17.6 µM (≈ 17.8 µg/mL) |  |
| CC[C@H]1OC(=O)[C@H](C)[C@@H](O[C@H]2CC(C)(OC)[C@@H](O)[C@H](C)O2)[C@H](C)[C@@H](O[C@@H]2O[C@H](C)C[C@H](N(C)C)[C@H]2O)[C@](C)(OC)C[C@@H](C)C(=O)[C@H](C)[C@H]2N(NCc3c(C(F)(F)F)nn(C)c3Cl)C(=O)O[C@]12C (some centres unmarked) [D3′] | 20 µM (≈ 19.7 µg/mL) |  |
| CC[C@H]1OC(=O)[C@H](C)[C@@H](O[C@H]2CC(C)(OC)[C@@H](O)[C@H](C)O2)[C@H](C)[C@@H](O[C@@H]2O[C@H](C)C[C@H](N(C)C)[C@H]2O)[C@](C)(OC)C[C@@H](C)C(=O)[C@H](C)[C@H]2N(NCc3c[nH]nc3-c3ccc(F)cc3)C(=O)O[C@]12C (some centres unmarked) [D5′] | 25 µM (≈ 24.1 µg/mL) |  |
| CC[C@H]1OC(=O)[C@H](C)[C@@H](O[C@H]2CC(C)(OC)[C@@H](O)[C@H](C)O2)[C@H](C)[C@@H](O[C@@H]2O[C@H](C)C[C@H](N(C)C)[C@H]2O)[C@](C)(OC)C[C@@H](C)C(=O)[C@H](C)[C@H]2N(NCC3CSN=N3)C(=O)O[C@]12C (some centres unmarked) [G10′] | >16 µM |  |
| CCC1OC(=O)C(C)C(OC2CC(C)(OC)C(O)C(C)O2)C(C)C(OC2OC(C)CC(N(C)C)C2O)C(C)(OC)CC(C)C(=O)C(C)C2N(N=CC3=C(Cl)c4cc(F)ccc4OC3)C(=O)OC12C (centres unmarked) [H9′] | ?3 μM |  |
| CC[C@H]1OC(=O)[C@H](C)[C@@H](O[C@H]2CC(C)(OC)[C@@H](O)[C@H](C)O2)[C@H](C)[C@@H](O[C@@H]2O[C@H](C)C[C@H](N(C)C)[C@H]2O)[C@](C)(OC)C[C@@H](C)C(=O)[C@H](C)[C@H]2N(NCc3cc(Br)cs3)C(=O)O[C@]12C (some centres unmarked) [F11′] | 12.7 µM (≈ 12.2 µg/mL) |  |
| CC[C@H]1OC(=O)[C@H](C)[C@@H](O[C@H]2CC(C)(OC)[C@@H](O)[C@H](C)O2)[C@H](C)[C@@H](O[C@@H]2O[C@H](C)C[C@H](N(C)C)[C@H]2O)[C@](C)(OC)C[C@@H](C)C(=O)[C@H](C)[C@H]2N(NCc3cccnc3)C(=O)O[C@]12C (some centres unmarked) [D9′] | >15 µM |  |
| CC[C@H]1OC(=O)[C@H](C)[C@@H](O[C@H]2CC(C)(OC)[C@@H](O)[C@H](C)O2)[C@H](C)[C@@H](O[C@@H]2O[C@H](C)C[C@H](N(C)C)[C@H]2O)[C@](C)(OC)C[C@@H](C)C(=O)[C@H](C)[C@H]2N(/N=C/c3cnc(-c4ccccc4)nc3C)C(=O)O[C@]12C (some centres unmarked) [E6′] | 5 µM (≈ 4.84 µg/mL) |  |
| CC[C@H]1OC(=O)[C@H](C)C(=O)[C@H](C)[C@@H](O[C@@H]2O[C@H](C)C[C@H](N(C)C)[C@H]2O)[C@](C)(OC)C[C@@H](C)C(=O)[C@H](C)[C@@H](O)[C@]1(C)O [RU56006] |  | MIC [2]: >128 µM |
| CC[C@H]1OC(=O)[C@H](C)[C@@H](O[C@H]2CC(C)(OC)[C@@H](O)[C@H](C)O2)[C@H](C)[C@@H](O[C@@H]2O[C@H](C)C[C@H](N(C)C)[C@H]2O)[C@](C)(OC)C[C@@H](C)C(=O)[C@H](C)[C@H]2N(NC/C=C/c3cc(OC)c(O)c(OC)c3)C(=O)O[C@]12C (some centres unmarked) [A6′] | 10.2 µM (≈ 10 µg/mL) |  |
| CC[C@H]1OC(=O)[C@H](C)[C@@H](O[C@H]2CC(C)(OC)[C@@H](O)[C@H](C)O2)[C@H](C)[C@@H](O[C@@H]2O[C@H](C)C[C@H](N(C)C)[C@H]2O)[C@](C)(OC)C[C@@H](C)C(=O)[C@H](C)[C@H]2N(NCc3cc4ccccc4s3)C(=O)O[C@]12C (some centres unmarked) [G2′] | 11 µM (≈ 10.3 µg/mL) |  |
| CC[C@H]1OC(=O)[C@H](C)[C@@H](O[C@H]2CC(C)(OC)[C@@H](O)[C@H](C)O2)[C@H](C)[C@@H](O[C@@H]2O[C@H](C)C[C@H](N(C)C)[C@H]2O)[C@](C)(OC)C[C@@H](C)C(=O)[C@H](C)[C@H]2N(NCc3csc(-c4ccccc4)n3)C(=O)O[C@]12C (some centres unmarked) [F9′] | 12.6 µM (≈ 12.1 µg/mL) |  |
| CC[C@H]1OC(=O)[C@H](C)[C@@H](O[C@H]2CC(C)(OC)[C@@H](O)[C@H](C)O2)[C@H](C)[C@@H](O[C@@H]2O[C@H](C)C[C@H](N(C)C)[C@H]2O)[C@](C)(OC)C[C@@H](C)C(=O)[C@H](C)[C@H]2N(NCc3c(C)noc3C)C(=O)O[C@]12C (some centres unmarked) [C6′] | >17 µM |  |
| CC[C@H]1OC(=O)[C@H](C)C(=O)[C@H](C)[C@@H](O[C@@H]2O[C@H](C)C[C@H](N(C)C)[C@H]2O)[C@](C)(OC)C[C@@H](C)C(=O)[C@H](C)[C@H]2N(CCCCn3ccnc3)C(=O)O[C@]12C [RU61205] |  | MIC [3]: 112 µM (≈ 82.3 µg/mL) |
| CCOC(=O)c1cc(-c2ccc(Cl)cc2)oc1CNN1C(=O)O[C@]2(C)[C@@H](CC)OC(=O)[C@H](C)[C@@H](O[C@H]3CC(C)(OC)[C@@H](O)[C@H](C)O3)[C@H](C)[C@@H](O[C@@H]3O[C@H](C)C[C@H](N(C)C)[C@H]3O)[C@](C)(OC)C[C@@H](C)C(=O)[C@H](C)[C@@H]12 (some centres unmarked) [B1′] | >18 µM |  |
| CC[C@H]1OC(=O)[C@H](C)[C@@H](O[C@H]2CC(C)(OC)[C@@H](O)[C@H](C)O2)[C@H](C)[C@@H](O[C@@H]2O[C@H](C)C[C@H](N(C)C)[C@H]2O)[C@](C)(OC)C[C@@H](C)C(=O)[C@H](C)[C@H]2N(NCc3c(Sc4ccc(Cl)cc4)nc4sccn34)C(=O)O[C@]12C (some centres unmarked) [H11′] | 35.4 µM (≈ 37.8 µg/mL) |  |

| SMILES | MIC [1] | also measured |
| --- | --- | --- |
| CC[C@H]1OC(=O)[C@H](C)[C@@H](O[C@H]2CC(C)(OC)[C@@H](O)[C@H](C)O2)[C@H](C)[C@@H](O[C@@H]2O[C@H](C)C[C@H](N(C)C)[C@H]2O)[C@](C)(OC)C[C@@H](C)C(=O)[C@H](C)[C@H]2N(NCc3nc4ccccc4s3)C(=O)O[C@]12C (some centres unmarked) [F7′] | 16 µM (≈ 15 µg/mL) |  |
| CC[C@H]1OC(=O)[C@H](C)[C@@H](O[C@H]2CC(C)(OC)[C@@H](O)[C@H](C)O2)[C@H](C)[C@@H](O[C@@H]2O[C@H](C)C[C@H](N(C)C)[C@H]2O)[C@](C)(OC)C[C@@H](C)C(=O)[C@H](C)[C@H]2N(NCc3cccn3CCC#N)C(=O)O[C@]12C (some centres unmarked) [E10′] | 20 µM (≈ 18.4 µg/mL) |  |
| CC[C@H]1OC(=O)[C@H](C)[C@@H](O[C@H]2CC(C)(OC)[C@@H](O)[C@H](C)O2)[C@H](C)[C@@H](O[C@@H]2O[C@H](C)C[C@H](N(C)C)[C@H]2O)[C@](C)(OC)C[C@@H](C)C(=O)[C@H](C)[C@H]2N(NCc3ccc(N4CCC(c5ccccc5OC)CC4)c([N+](=O)[O-])c3)C(=O)O[C@]12C (some centres unmarked) [G12′] | 19 µM (≈ 21.1 µg/mL) |  |
| CC[C@H]1OC(=O)[C@H](C)C(=O)[C@H](C)[C@@H](O[C@@H]2O[C@H](C)C[C@H](N(C)C)[C@H]2O)[C@](C)(OC)C[C@@H](C)C(=O)[C@H](C)[C@H]2N(NCCc3ccccc3)C(=O)O[C@]12C [RU70645] |  | MIC [3]: 14 µM (≈ 10.2 µg/mL) |
| CC[C@H]1OC(=O)[C@H](C)[C@@H](O[C@H]2CC(C)(OC)[C@@H](O)[C@H](C)O2)[C@H](C)[C@@H](O[C@@H]2O[C@H](C)C[C@H](N(C)C)[C@H]2O)[C@](C)(OC)C[C@@H](C)C(=O)[C@H](C)[C@H]2N(NCc3ccc4c(c3)nnn4C)C(=O)O[C@]12C (some centres unmarked) [H7′] | >22 µM |  |
| CC[C@H]1OC(=O)[C@H](C)[C@@H](O[C@H]2CC(C)(OC)[C@@H](O)[C@H](C)O2)[C@H](C)[C@@H](O[C@@H]2O[C@H](C)C[C@H](N(C)C)[C@H]2O)[C@](C)(OC)C[C@@H](C)C(=O)[C@H](C)[C@H]2N(NCc3sccc3Oc3ccccc3)C(=O)O[C@]12C (some centres unmarked) [G4′] | 13 µM (≈ 12.7 µg/mL) |  |
| CC[C@H]1OC(=O)[C@H](C)[C@@H](O[C@H]2CC(C)(OC)[C@@H](O)[C@H](C)O2)[C@H](C)[C@@H](O[C@@H]2O[C@H](C)C[C@H](N(C)C)[C@H]2O)[C@](C)(OC)C[C@@H](C)C(=O)[C@H](C)[C@H]2N(NCc3cccc4nsnc34)C(=O)O[C@]12C (some centres unmarked) [H3′] | >22 µM |  |
| CC[C@H]1OC(=O)[C@H](C)[C@@H](O[C@H]2CC(C)(OC)[C@@H](O)[C@H](C)O2)[C@H](C)[C@@H](O[C@@H]2O[C@H](C)C[C@H](N(C)C)[C@H]2O)[C@](C)(OC)C[C@@H](C)C(=O)[C@H](C)[C@H]2N(NCc3cncn3C)C(=O)O[C@]12C (some centres unmarked) [B5′] | >27 µM |  |
| CC[C@H]1OC(=O)[C@H](C)C(=O)[C@H](C)[C@@H](O[C@@H]2O[C@H](C)C[C@H](N(C)C)[C@H]2O)[C@](C)(OC)C[C@@H](C)C(=NOCOCCOC)[C@H](C)[C@@H](O)[C@]1(C)O [RU54615] |  | MIC [2]: >128 µM |
| CC[C@H]1OC(=O)[C@H](C)C(=O)[C@H](C)[C@@H](O[C@@H]2O[C@H](C)C[C@H](N(C)C)[C@H]2O)[C@](C)(OC)C[C@@H](C)C(=O)[C@H](C)[C@H]2N(CCCCn3cnc(-c4cccnc4)c3)C(=O)O[C@]12C [Telithromycin, reference compound] |  | MIC [3]: 48 µM (≈ 39 µg/mL); MIC / activity vs. M. tuberculosis in words (in vitro): even less active than clarithromycin |
| CC[C@H]1OC(=O)[C@H](C)[C@@H](O[C@H]2CC(C)(OC)[C@@H](O)[C@H](C)O2)[C@H](C)[C@@H](O[C@@H]2O[C@H](C)C[C@H](N(C)C)[C@H]2O)[C@](C)(OC)C[C@@H](C)C(=O)[C@H](C)[C@H]2N(NCC3=Cc4ccccc4OC3)C(=O)O[C@]12C (some centres unmarked) [G6′] | 11 µM (≈ 10.3 µg/mL) |  |
| CC[C@H]1OC(=O)[C@H](C)[C@@H](O[C@H]2CC(C)(OC)[C@@H](O)[C@H](C)O2)[C@H](C)[C@@H](O[C@@H]2O[C@H](C)C[C@H](N(C)C)[C@H]2O)[C@](C)(OC)C[C@@H](C)C(=O)[C@H](C)[C@H]2N(NCc3nccn3C)C(=O)O[C@]12C (some centres unmarked) [B3′] | >18 µM |  |
| CC[C@H]1OC(=O)[C@H](C)[C@@H](O[C@H]2CC(C)(OC)[C@@H](O)[C@H](C)O2)[C@H](C)[C@@H](O[C@@H]2O[C@H](C)C[C@H](N(C)C)[C@H]2O)[C@](C)(OC)C[C@@H](C)C(=O)[C@H](C)[C@H]2N(NCc3cc(C(=O)OC)c(C)o3)C(=O)O[C@]12C (some centres unmarked) [A12′] | >12 µM |  |
| CC[C@H]1OC(=O)[C@H](C)[C@@H](O[C@H]2CC(C)(OC)[C@@H](O)[C@H](C)O2)[C@H](C)[C@@H](O[C@@H]2O[C@H](C)C[C@H](N(C)C)[C@H]2O)[C@](C)(OC)C[C@@H](C)C(=O)[C@H](C)[C@H]2N(NCc3cn(S(=O)(=O)c4ccc(C)cc4)c4ccccc34)C(=O)O[C@]12C (some centres unmarked) [C4′] | 11 µM (≈ 11.8 µg/mL) |  |
| CC[C@H]1OC(=O)[C@H](C)[C@@H](O[C@H]2CC(C)(OC)[C@@H](O)[C@H](C)O2)[C@H](C)[C@@H](O[C@@H]2O[C@H](C)C[C@H](N(C)C)[C@H]2O)[C@](C)(OC)C[C@@H](C)C(=O)[C@H](C)[C@H]2N(NCc3c(C)[nH]c4ccc([N+](=O)[O-])cc34)C(=O)O[C@]12C (some centres unmarked) [B11′] | >22 µM |  |
